From PubChem BioAssay AID248 (DTP/NCI, 2004)
Toxic doses and inconclusive results are not listed. Cut-off read from the data, not from the text of the source: active = T/C of 150% or more; inactive = T/C below 125%.

Test system: L1210 leukemia ip in BDF1 mice, survival T/C
Assay: NCI In Vivo Anticancer Drug Screen. Data for tumor model L1210 Leukemia (intraperitoneal) in B6D2F1 (BDF1) mice
Conditions: endpoint: mean survival time, higher = longer survival
Summary of the method: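 Mice bearing the transplanted tumor received compound or vehicle. Survival of the treated group was divided by that of the vehicle-treated control group to give the ratio.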

Measured: T/C

CNC(=O)NO
inactive: dose: 50.0 mg/kg/injection, schedule: Q01DX Z (ip), vehicle: water 112 % of control | dose: 200.0 mg/kg/injection, schedule: Q01DX Z (ip), vehicle: water 97 % of control | dose: 400.0 mg/kg/injection, schedule: Q01DX Z (ip), vehicle: water 115 % of control

OCC1OC(n2cnc3c([Se]Cc4ccccc4)ncnc32)C(O)C1O (stereo not drawn)
inactive: dose: 1.56 mg/kg/injection, schedule: Q01DX005 (ip), vehicle: saline 97 % of control | dose: 3.12 mg/kg/injection, schedule: Q01DX005 (ip), vehicle: saline 94 % of control | dose: 3.12 mg/kg/injection, schedule: Q01DX009 (ip), vehicle: saline 103 % of control | dose: 6.25 mg/kg/injection, schedule: Q01DX005 (ip), vehicle: saline 97 % of control | dose: 6.25 mg/kg/injection, schedule: Q01DX009 (ip), vehicle: saline 95 % of control | dose: 12.5 mg/kg/injection, schedule: Q01DX005 (ip), vehicle: saline 110 % of control | dose: 12.5 mg/kg/injection, schedule: Q01DX009 (ip), vehicle: saline 105 % of control

NC(=O)COc1ncc(Cl)cc1Cl
inactive: dose: 100.0 mg/kg/injection, schedule: Q04DX002 (ip), vehicle: Klucel (hydroxypropylcellulose) (HPC) 96 % of control | dose: 200.0 mg/kg/injection, schedule: Q04DX002 (ip), vehicle: Klucel (hydroxypropylcellulose) (HPC) 101 % of control | dose: 400.0 mg/kg/injection, schedule: Q04DX002 (ip), vehicle: Klucel (hydroxypropylcellulose) (HPC) 104 % of control

C=CC(=O)NC(C)=O
inactive: dose: 12.5 mg/kg/injection, schedule: Q04DX002 (ip), vehicle: Klucel (hydroxypropylcellulose) (HPC) 103 % of control | dose: 25.0 mg/kg/injection, schedule: Q04DX002 (ip), vehicle: Klucel (hydroxypropylcellulose) (HPC) 92 % of control | dose: 50.0 mg/kg/injection, schedule: Q04DX002 (ip), vehicle: Klucel (hydroxypropylcellulose) (HPC) 95 % of control

O=C1OC2C(I)C3CCC2C1C3 (stereo not drawn)
inactive: dose: 100.0 mg/kg/injection, schedule: Q01DX009 (ip), vehicle: saline 98 % of control | dose: 100.0 mg/kg/injection, schedule: Q04DX003 (ip), vehicle: saline 102 % of control | dose: 200.0 mg/kg/injection, schedule: Q01DX009 (ip), vehicle: saline 102 % of control | dose: 200.0 mg/kg/injection, schedule: Q04DX003 (ip), vehicle: saline 105 % of control | dose: 400.0 mg/kg/injection, schedule: Q01DX009 (ip), vehicle: saline 98 % of control | dose: 400.0 mg/kg/injection, schedule: Q04DX003 (ip), vehicle: saline 98 % of control

CCc1ccccc1NC(=O)c1cccc(C(=O)Nc2ccccc2CC)c1
inactive: dose: 50.0 mg/kg/injection, schedule: Q01DX009 (ip), vehicle: Klucel (hydroxypropylcellulose) (HPC) 98 % of control | dose: 100.0 mg/kg/injection, schedule: Q01DX009 (ip), vehicle: Klucel (hydroxypropylcellulose) (HPC) 94 % of control | dose: 100.0 mg/kg/injection, schedule: Q04DX003 (ip), vehicle: Klucel (hydroxypropylcellulose) (HPC) 91 % of control | dose: 200.0 mg/kg/injection, schedule: Q01DX009 (ip), vehicle: Klucel (hydroxypropylcellulose) (HPC) 110 % of control | dose: 200.0 mg/kg/injection, schedule: Q04DX003 (ip), vehicle: Klucel (hydroxypropylcellulose) (HPC) 88 % of control

CN(C)C(=O)NCc1cccnc1
inactive: dose: 100.0 mg/kg/injection, schedule: Q04DX013 (ip), vehicle: saline 100 % of control | dose: 200.0 mg/kg/injection, schedule: Q04DX013 (ip), vehicle: saline 94 % of control | dose: 400.0 mg/kg/injection, schedule: Q04DX013 (ip), vehicle: saline 101 % of control

NC(=S)NNC(=O)/C=C/c1ccccc1
inactive: dose: 100.0 mg/kg/injection, schedule: Q04DX003 (ip), vehicle: saline sonified 105 % of control | dose: 200.0 mg/kg/injection, schedule: Q04DX003 (ip), vehicle: saline sonified 91 % of control | dose: 400.0 mg/kg/injection, schedule: Q04DX003 (ip), vehicle: saline sonified 91 % of control
